Data from article PMC10818589 (2024).

Test system: d(5′-CGCGAATTCGCG-3′)2 (DNA, duplex) CGCGAATTCGCG
Assay: ethidium bromide displacement, fluorescence quenching, double-log plot
Conditions: phosphate buffer 100 mM (cation not given); pH 7.0, 298 K; 20 μM duplex saturated with EtBr (5.07 μM), displaced; compound slowly decomposes in water; apparent

Kb: 3.162 × 10^5 ± 0.001 M^-1
SMILES: [Ru+2].[Ru+2].[Ru+2].[Ru+2].[Ru+2].[Ru+2].[Ru+2].[Ru+2].[Ru+2].[Ru+2].[Ru+2].[Ru+2].c1cc2ccc1-c1ccc(cc1)-c1ccc(cc1)-c1ccc(cc1)-c1ccc(cc1)-c1ccc(cc1)-c1ccc(cc1)-c1ccc(cc1)-c1ccc(cc1)-c1ccc(cc1)-c1ccc(cc1)-c1ccc-2cc1.c1cc[cH-]c1.c1cc[cH-]c1.c1cc[cH-]c1.c1cc[cH-]c1.c1cc[cH-]c1.c1cc[cH-]c1.c1cc[cH-]c1.c1cc[cH-]c1.c1cc[cH-]c1.c1cc[cH-]c1.c1cc[cH-]c1.c1cc[cH-]c1
